Test results reported in patent publication US9290457B2, “Substituted dihydropyrimidinones and their use as inhibitors of neutrophil elastase activity” (Boehringer Ingelheim International GmbH, priority 2014, dated 2016).

What follows are compounds tested against neutrophil elastase (Homo sapiens (Human), UniProt P08246) (assay: Human Neutrophil Elastase Assay). Conditions: substrate MeOSuc-Ala-Ala-Pro-Val-AMC.
Format: biochemical
Method: Human Neutrophil Elastase Assay
All other materials were of the highest grade commercially available.
The following buffers were used: Compound buffer: 100 mM Tris, 500 mM NaCl, adjusted to pH 7.5; Assay buffer: 100 mM Tris, 500 mM NaCl, adjusted to pH 7.5, containing 0.01% BSA.
Assay conditions: Test compounds were prediluted in DMSO and subsequently in compound buffer (5% DMSO final). […] After inactivation of the enzyme, fluorescence intensities were measured at 380 nm excitation and 460 nm emission wavelengths.
Each plate contains wells with a high value control (DMSO+enzyme+substrate) and wells with a low value control (DMSO+inactivated enzyme+substrate). IC50 values were estimated using a sigmoidal concentration response curve with variable slope. Means of low values were taken as 0%, means of high values as 100%.

neutrophil elastase, sequence (P08246 30-247): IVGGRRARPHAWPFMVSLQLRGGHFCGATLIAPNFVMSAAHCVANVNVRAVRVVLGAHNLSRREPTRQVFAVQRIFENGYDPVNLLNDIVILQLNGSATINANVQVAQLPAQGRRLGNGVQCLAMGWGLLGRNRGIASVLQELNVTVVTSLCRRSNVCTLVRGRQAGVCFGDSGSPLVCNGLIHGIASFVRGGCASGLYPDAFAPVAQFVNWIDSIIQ

Point of comparison: `CCOC(=O)C1=C(C)N(c2cccc(C(F)(F)F)c2)C(=O)N(C)C1c1ccc(C#N)cc1C(=O)N1CCC1` (centres unmarked) [Example 3.9], IC50 3 nM. Against it:
- CC(=O)C1=C(C)N(c2cccc(C(F)(F)F)c2)C(=O)N(C)C1c1ccc(C#N)cc1C(=O)N1CCN(C2CC2)CC1 (centres unmarked) [Example 1.81] — 2.9-fold higher, 8.8 nM
- CC(=O)C1=C(C)N(c2cccc(C(F)(F)F)c2)C(=O)N(C)C1c1ccc(C#N)cc1C(=O)N1CCCC1 (centres unmarked) [Example 1.11] — lower, < 1 nM
- CC(=O)C1=C(C)N(c2cccc(C(F)(F)F)c2)C(=O)N(C)C1c1ccc(C#N)cc1C(=O)N1CCN(C(C)C)CC1 (centres unmarked) [Example 1.82] — within 1.5-fold, 2.7 nM
- CC(=O)C1=C(C)N(c2cccc(C(F)(F)F)c2)C(=O)N(C)C1c1ccc(C#N)cc1-c1ccoc1 (centres unmarked) [Example 5, 4-[5-Acetyl-3,6-dimethyl-2-oxo-1-(3-trifluoromethyl-phenyl)-1,2,3,4-tetrahydro-pyrimidin-4-yl]-3-furan-3-yl-benzonitrile] — within 1.5-fold, 2.6 nM
- CCOC(=O)C1=C(C)N(c2cccc(C(F)(F)F)c2)C(=O)N(C)C1c1ccc(C#N)cc1C(=O)N1CCN(C2CC2)CC1 (centres unmarked) [Example 3.42] — within 1.5-fold, 2.9 nM
- CC(=O)C1=C(C)N(c2cccc(C(F)(F)F)c2)C(=O)N(C)C1c1ccc(C#N)cc1-c1ncc(C)o1 (centres unmarked) [Example 7, 4-[5-Acetyl-3,6-dimethyl-2-oxo-1-(3-trifluoromethyl-phenyl)-1,2,3,4-tetrahydro-pyrimidin-4-yl]-3-(5-methyl-oxazol-2-yl)-benzonitrile] — lower, < 1 nM
- CC(=O)C1=C(C)N(c2cccc(C(F)(F)F)c2)C(=O)N(C)C1c1ccc(C#N)cc1C(=O)NCc1cn(C)cn1 (centres unmarked) [Example 1.58] — lower, < 1 nM
- CC(=O)C1=C(C)N(c2cccc(C(F)(F)F)c2)C(=O)N(C)C1c1ccc(C#N)cc1C(=O)NCc1cncn1C (centres unmarked) [Example 1.52] — lower, < 1 nM
- CCOC(=O)C1=C(C)N(c2cccc(C(F)(F)F)c2)C(=O)N(C)C1c1ccc(C#N)cc1C(=O)NC1CCNCC1 (centres unmarked) [Example 4.2] — 1.8-fold lower, 1.7 nM
- CC(=O)C1=C(C)N(c2cccc(C(F)(F)F)c2)C(=O)N(C)C1c1ccc(C#N)cc1C(=O)NC1COC1 (centres unmarked) [Example 1.13] — lower, < 1 nM
- CCOC(=O)C1=C(C)N(c2cccc(C(F)(F)F)c2)C(=O)N(C)C1c1ccc(C#N)cc1C(=O)N1CC[C@H](N(C)C)C1 (some centres unmarked) [Example 3.38] — 3-fold lower, 1 nM
- COCCNC(=O)c1cc(C#N)ccc1C1C(C(C)=O)=C(C)N(c2cccc(C(F)(F)F)c2)C(=O)N1C (centres unmarked) [Example 1.15] — lower, < 1 nM
- CC(=O)C1=C(C)N(c2cccc(C(F)(F)F)c2)C(=O)N(C)C1c1ccc(C#N)cc1C(=O)NCc1cnoc1 (centres unmarked) [Example 1.39] — lower, < 1 nM
- CCOC(=O)C1=C(C)N(c2cccc(C(F)(F)F)c2)C(=O)N(C)C1c1ccc(C#N)cc1C(=O)NC1CCN(C)CC1 (centres unmarked) [Example 3.31] — 3-fold lower, 1 nM
- CCOC(=O)C1=C(C)N(c2cccc(C(F)(F)F)c2)C(=O)N(C)C1c1ccc(C#N)cc1C(=O)N1CC2COCC(C1)N2 (centres unmarked) [Example 4.4] — 3.8-fold higher, 11.4 nM
- CCOC(=O)C1=C(C)N(c2cccc(C(F)(F)F)c2)C(=O)N(C)C1c1ccc(C#N)cc1C(=O)N1CCN2CCCC2C1 (centres unmarked) [Example 3.43] — within 1.5-fold, 2.8 nM
- CCOC(=O)C1=C(C)N(c2cccc(C(F)(F)F)c2)C(=O)N(C)C1c1ccc(C#N)cc1C(=O)N(C)CCN(C)C (centres unmarked) [Example 3.36] — lower, < 1 nM
- CCOC(=O)C1=C(C)N(c2cccc(C(F)(F)F)c2)C(=O)N(C)C1c1ccc(C#N)cc1C(=O)NC1CCS(=O)(=O)C1 (centres unmarked) [Example 3.34] — 3-fold lower, 1 nM
- CCOC(=O)C1=C(C)N(c2cccc(C(F)(F)F)c2)C(=O)N(C)C1c1ccc(C#N)cc1C(=O)NCC#N (centres unmarked) [Example 3.7] — the same, 3 nM
- CC(=O)C1=C(C)N(c2cccc(C(F)(F)F)c2)C(=O)N(C)C1c1ccc(C#N)cc1C(=O)NCc1nncn1C (centres unmarked) [Example 1.61] — lower, < 1.3 nM
- COCCCNC(=O)c1cc(C#N)ccc1C1C(C(C)=O)=C(C)N(c2cccc(C(F)(F)F)c2)C(=O)N1C (centres unmarked) [Example 1.20] — lower, < 1 nM
- CC(=O)C1=C(C)N(c2cccc(C(F)(F)F)c2)C(=O)N(C)C1c1ccc(C#N)cc1C(=O)N1Cc2ccncc2C1 (centres unmarked) [Example 1.66] — 1.8-fold lower, 1.7 nM
